The values that follow come from patent EP3858439A1 (priority 2020, dated 2021).

SMILES strings stand for the structures. pKi: −log10 of the molar value. Where a name gives a salt, the structure may show the parent alone.

The target of one assay is T1, human µ-opioid receptor (Homo sapiens, UniProt P35372).
T1 construct: expressed in transfected cells; host or cells: CHO-K1
T1 sequence (P35372 whole entry): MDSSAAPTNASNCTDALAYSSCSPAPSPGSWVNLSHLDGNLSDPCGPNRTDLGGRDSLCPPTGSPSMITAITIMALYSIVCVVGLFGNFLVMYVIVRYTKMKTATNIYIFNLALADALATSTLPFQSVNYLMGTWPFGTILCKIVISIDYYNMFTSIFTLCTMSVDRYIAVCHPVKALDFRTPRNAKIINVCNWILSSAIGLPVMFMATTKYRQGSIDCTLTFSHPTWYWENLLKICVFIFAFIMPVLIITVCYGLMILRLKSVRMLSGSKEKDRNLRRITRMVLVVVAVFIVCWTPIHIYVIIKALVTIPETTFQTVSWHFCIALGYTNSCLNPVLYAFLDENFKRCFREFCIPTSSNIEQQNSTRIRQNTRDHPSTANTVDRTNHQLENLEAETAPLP
The assay is described as follows: Binding assay to human µ-opioid receptor ([3H]-DAMGO displacement).
Settings: not given
The protocol: Binding assay to human µ-opioid receptor
Transfected CHO-K1 cell membranes (20 µg) were incubated with [^3H]-DAMGO (1 nM) in assay buffer containing Tris-HCl 50 mM, MgCl2 5 mM at pH 7.4.
Plates were incubated at 27 °C for 60 min. After the incubation period, the reaction mixture was then transferred to MultiScreen HTS, FC plates (Millipore), filtered and plates were washed 3 times with ice-cold 10 mM Tris-HCl (pH 7.4).
Filters were dried and counted at approximately 40% efficiency in a MicroBeta scintillation counter (Perkin-Elmer) using EcoScint liquid scintillation cocktail.
As to `CN(C)C1(c2ccccc2)CCN(C(=O)[C@@H](CN)[C@@H]2CCCc3ccccc32)CC1` (racemic) [Example 77, (RS)-3-Amino-1-(4-(dimethylamino)-4-phenylpiperidin-1-yl)-2-((SR)-1,2,3,4-tetrahydronaphthalen-1-yl)propan-1-one], the pKi is > 7.00. On to `CN(C)C1(c2ccccc2)CCN(C(=O)[C@@H](CN)[C@H]2CCCc3ccccc32)CC1` (racemic) [Example 78, (RS)-3-amino-1-(4-(dimethylamino)-4-phenylpiperidin-1-yl)-2-((RS)-1,2,3,4-tetrahydronaphthalen-1-yl)propan-1-one], for which the pKi is > 7.00. As for `CN(C)C1(c2ccccc2)CCN(C(=O)[C@H](CN)C(C)(C)c2ccccc2)CC1` [Example 5, (S)-2-(aminomethyl)-1-(4-(dimethylamino)-4-phenylpiperidin-1-yl)-3-methyl-3-phenylbutan-1-one], the pKi was > 7.00. In the case of `CNC1(c2ccccc2)CCN(C(=O)[C@H](CN)[C@@H](C)c2ccccc2)CC1` [Example 9, (2S,3R)-2-(aminomethyl)-1-(4-(methylamino)-4-phenylpiperidin-1-yl)-3-phenylbutan-1-one], the pKi is > 7.00. The same measure, in the same setting: the same measure for `CN(C)C1(c2ccccc2)CCN(C(=O)C(CN)Cc2ccccc2)CC1` (stereo not drawn) [Example 28, 3-amino-2-benzyl-1-(4-(dimethylamino)-4-phenylpiperidin-1-yl)propan-1-one dihydrochloride]: > 7.00.

The assay is the same for the next values; noted with them: Table 2; transfected CHO-K1 cell membranes, [3H]-DAMGO 1 nM, 60 min at 27 °C; read-out: Binding µ.
`CNC[C@@H](C(=O)N1CCC(c2ccccc2)(N(C)C)CC1)[C@@H](C)c1ccccc1` [Example 1, (2S,3R)-1-(4-(Dimethylamino)-4-phenylpiperidin-1-yl)-2-((methylamino)methyl)-3-phenylbutan-1-one dihydrochloride]: the pKi was > 7.00. Same read-out and setting: next, `CNC[C@@H](C(=O)N1CCC(c2ccc(F)cc2)(N(C)C)CC1)[C@@H](C)c1ccccc1` [Example 2, (2S,3R)-1-(4-(dimethylamino)-4-(4-fluorophenyl)piperidin-1-yl)-2-((methylamino)methyl)-3-phenylbutan-1-one]: > 7.00. `CNC[C@@H](C(=O)N1CCC(c2cccc(F)c2)(N(C)C)CC1)[C@@H](C)c1ccccc1` [Example 3, (2S,3R)-1-(4-(dimethylamino)-4-(3-fluorophenyl)piperidin-1-yl)-2-((methylamino)methyl)-3-phenylbutan-1-one]: the pKi was > 7.00.

Regarding `CNC[C@@H](C(=O)N1CCC(NC)(c2ccccc2)CC1)[C@@H](C)c1ccccc1` [Example 4, (2S,3R)-1-(4-(methylamino)-4-phenylpiperidin-1-yl)-2-((methylamino)methyl)-3-phenylbutan-1-one], the pKi is 6.30 to 7.00. On to `CC[C@@H](c1ccccc1)[C@@H](CN)C(=O)N1CCC(NC)(c2ccccc2)CC1` [Example 6, (2S,3R)-2-(aminomethyl)-1-(4-(methylamino)-4-phenylpiperidin-1-yl)-3-phenylpentan-1-one dihydrochloride], for which the pKi was > 7.00. `C[C@@H](c1ccccc1)[C@@H](CN)C(=O)N1CCC(c2ccccc2)(N(C)C)CC1` [Example 7, (2S,3R)-2-(aminomethyl)-1-(4-(dimethylamino)-4-phenylpiperidin-1-yl)-3-phenylbutan-1-one dihydrochloride]: the pKi is > 7.00. Still for that read-out and setting: the same measure for `CC[C@@H](c1ccccc1)[C@@H](CN)C(=O)N1CCC(c2ccccc2)(N(C)C)CC1` [Example 8, (2S,3R)-2-(aminomethyl)-1-(4-(dimethylamino)-4-phenylpiperidin-1-yl)-3-phenylpentan-1-one dihydrochloride]: > 7.00.

In the case of `CC[C@@H](c1ccccc1)[C@@H](CN)C(=O)N1CC(c2ccccc2)(N(C)C)C1` [Example 10, (2S,3R)-2-(aminomethyl)-1-(3-(dimethylamino)-3-phenylazetidin-1-yl)-3-phenylpentan-1-one], the pKi was < 6.30. Still for that read-out and setting: the same measure for `CC[C@@H](c1cccc(F)c1)[C@@H](CN)C(=O)N1CCC(NC)(c2ccccc2)CC1` [Example 11, (2S,3R)-2-(aminomethyl)-3-(3-fluorophenyl)-1-(4-(methylamino)-4-phenylpiperidin-1-yl)pentan-1-one]: > 7.00; for `CNC[C@@H](C(=O)N1CCC(c2ccc(OC)cc2)(N(C)C)CC1)[C@@H](C)c1ccccc1` [Example 12, (2S,3R)-1-(4-(dimethylamino)-4-(4-methoxyphenyl)piperidin-1-yl)-2-((methylamino)methyl)-3-phenylbutan-1-one]: > 7.00.

Turning to `CC[C@@H](c1ccccc1)[C@@H](CNC)C(=O)N1CCC(c2ccccc2)(N(C)C)CC1` [Example 13, (2S,3R)-1-(4-(dimethylamino)-4-phenylpiperidin-1-yl)-2-((methylamino)methyl)-3-phenylpentan-1-one dihydrochloride], the pKi is > 7.00. Still for that read-out and setting: next, `CNC[C@@H](C(=O)N1CCC(c2ccccc2)(N(C)C)CC1)[C@@H](C)c1ccccc1F` [Example 14, (2S,3R)-1-(4-(dimethylamino)-4-phenylpiperidin-1-yl)-3-(2-fluorophenyl)-2-((methylamino)methyl)butan-1-one dihydrochloride]: 6.30 to 7.00; `CNC[C@@H](C(=O)N1CCC(c2ccccc2)(N(C)C)CC1)[C@@H](C)c1cccc(F)c1` [Example 15, (2S,3R)-1-(4-(dimethylamino)-4-phenylpiperidin-1-yl)-3-(3-fluorophenyl)-2-((methylamino)methyl)butan-1-one]: > 7.00. For `CNC[C@@H](C(=O)N1CCC(c2cccc(O)c2)(N(C)C)CC1)[C@@H](C)c1ccccc1` [Example 16, (2S,3R)-1-(4-(dimethylamino)-4-(3-hydroxyphenyl)piperidin-1-yl)-2-((methylamino)methyl)-3-phenylbutan-1-one dihydrochloride], the pKi was > 7.00. Take `CC[C@@H](c1ccccc1)[C@@H](CNC)C(=O)N1CCC(NC)(c2ccccc2)CC1` [Example 17, (2S,3R)-1-(4-(methylamino)-4-phenylpiperidin-1-yl)-2-((methylamino)methyl)-3-phenylpentan-1-one dihydrochloride]: the pKi is > 7.00.

For the compound `CC[C@@H](c1ccccc1)[C@@H](CNC)C(=O)N1CC(c2ccccc2)(N(C)C)C1` [Example 19, (2S,3R)-1-(3-(dimethylamino)-3-phenylazetidin-1-yl)-2-((methylamino)methyl)-3-phenylpentan-1-one dihydrochloride], the pKi is < 6.30. Same read-out and setting: the same measure for `CC[C@@H](c1cccc(F)c1)[C@@H](CNC)C(=O)N1CCC(NC)(c2ccccc2)CC1` [Example 20, (2S,3R)-3-(3-fluorophenyl)-1-(4-(methylamino)-4-phenylpiperidin-1-yl)-2-((methylamino)methyl)pentan-1-one]: > 7.00. With `CC[C@@H](c1cccc(F)c1)[C@@H](CNC)C(=O)N1CCC(c2ccccc2)(N(C)C)CC1` [Example 21, (2S,3R)-1-(4-(dimethylamino)-4-phenylpiperidin-1-yl)-3-(3-fluorophenyl)-2-((methylamino)methyl)pentan-1-one], the pKi was > 7.00. Turning to `CC[C@@H](c1ccccc1)[C@@H](CNC)C(=O)N1CCC(NC)(c2ccc(OC)cc2)CC1` [Example 22, (2S,3R)-1-(4-(4-methoxyphenyl)-4-(methylamino)piperidin-1-yl)-2-((methylamino)methyl)-3-phenylpentan-1-one dihydrochloride], the pKi is > 7.00.
